Measurements reported in ChEMBL document CHEMBL1201862, “PubChem BioAssay data set” (2004).
Activity calls are given as the source filed them.

Legend:
BJ [1] = test: cytotoxicity toward BJ-TERT fibroblasts, dose response, cell-based, RAS-independent, luminescence (AID 1933); format: functional; conditions: Homo sapiens
BJ [2] = test: cells; format: functional, cell-based; conditions: Homo sapiens
BJ [3] = test: cytotoxicity toward BJ-TERT-LT-ST fibroblasts, dose response, cell-based, RAS-independent, luminescence (AID 1935); format: functional; conditions: Homo sapiens;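 note: BJ fibroblasts immortalized with TERT plus LT and ST oncogenes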
[4] = cytotoxicity toward DRD oncogenic fibroblasts, dose response, cell-based, non-viral oncogenic, luminescence (AID 1934); format: functional; conditions: Homo sapiens
Nonstructural protein 1 = Nonstructural protein 1 (Influenza A virus, UniProt Q194T2); format: functional, Influenza A virus (A/California/07/2009(H1N1))
[5] = Intein inhibitors as potential Tuberculosis drugs, a cytotoxicity screen. [Related pubchem assays (depositor defined):AID2221, AID2223, AID434968, AID435010, AID449749, AID449750, AID489010]; format: functional
[6] = molecular target: T1, Replicative DNA helicase DnaB (Mycobacterium tuberculosis, UniProt P9WMR3); test: DnaB intein splicing inhibitors, dose response, biochemical, cell-free fluorescence (AID 449749); format: functional
T1 sequence (P9WMR3 whole entry): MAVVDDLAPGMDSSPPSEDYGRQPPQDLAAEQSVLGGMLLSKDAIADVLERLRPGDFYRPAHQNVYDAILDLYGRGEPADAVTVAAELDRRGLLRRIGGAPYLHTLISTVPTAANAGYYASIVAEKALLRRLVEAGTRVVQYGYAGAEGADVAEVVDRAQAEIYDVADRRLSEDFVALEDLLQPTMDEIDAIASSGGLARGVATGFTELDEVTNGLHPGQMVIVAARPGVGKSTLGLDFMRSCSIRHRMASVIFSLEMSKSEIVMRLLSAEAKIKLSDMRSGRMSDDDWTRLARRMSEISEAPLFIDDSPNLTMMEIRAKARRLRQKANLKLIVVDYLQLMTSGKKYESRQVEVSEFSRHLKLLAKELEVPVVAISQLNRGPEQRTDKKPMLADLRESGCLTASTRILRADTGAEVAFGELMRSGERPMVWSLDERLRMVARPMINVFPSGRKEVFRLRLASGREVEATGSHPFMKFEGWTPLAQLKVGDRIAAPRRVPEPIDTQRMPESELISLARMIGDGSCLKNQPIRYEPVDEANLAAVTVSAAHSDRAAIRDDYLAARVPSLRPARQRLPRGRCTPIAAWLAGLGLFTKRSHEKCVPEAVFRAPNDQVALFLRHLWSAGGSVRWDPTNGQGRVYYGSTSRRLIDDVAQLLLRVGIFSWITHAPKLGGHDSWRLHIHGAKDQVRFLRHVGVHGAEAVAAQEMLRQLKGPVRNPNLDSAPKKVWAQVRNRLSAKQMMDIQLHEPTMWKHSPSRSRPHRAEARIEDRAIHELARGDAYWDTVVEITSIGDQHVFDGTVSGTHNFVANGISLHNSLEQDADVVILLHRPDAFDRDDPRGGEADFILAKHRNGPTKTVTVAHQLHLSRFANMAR

BJ [7] = test: cytotoxicity toward Ras-transformed BJeLR fibroblasts, dose response, cell-based, alamar blue fluorescence, cherrypicked samples (AID 2631); format: functional; conditions: Homo sapiens;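 note: confirmatory dose-response assay in RAS-dependent BJ fibroblasts engineered with TERT, LT and ST, with cytotoxicity read by fluorescence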
Protein RecA = molecular target: T2, Protein RecA (Mycobacterium tuberculosis, UniProt P9WHJ3); test: Fluorescence Cell-Free Homogeneous Dose Retest to Identify Inhibitors of RecA-Intein Splicing Activity. [Related pubchem assays (depositor defined):AID2097, AID2223, AID489010, AID492950]; format: functional
T2 sequence (P9WHJ3 whole entry): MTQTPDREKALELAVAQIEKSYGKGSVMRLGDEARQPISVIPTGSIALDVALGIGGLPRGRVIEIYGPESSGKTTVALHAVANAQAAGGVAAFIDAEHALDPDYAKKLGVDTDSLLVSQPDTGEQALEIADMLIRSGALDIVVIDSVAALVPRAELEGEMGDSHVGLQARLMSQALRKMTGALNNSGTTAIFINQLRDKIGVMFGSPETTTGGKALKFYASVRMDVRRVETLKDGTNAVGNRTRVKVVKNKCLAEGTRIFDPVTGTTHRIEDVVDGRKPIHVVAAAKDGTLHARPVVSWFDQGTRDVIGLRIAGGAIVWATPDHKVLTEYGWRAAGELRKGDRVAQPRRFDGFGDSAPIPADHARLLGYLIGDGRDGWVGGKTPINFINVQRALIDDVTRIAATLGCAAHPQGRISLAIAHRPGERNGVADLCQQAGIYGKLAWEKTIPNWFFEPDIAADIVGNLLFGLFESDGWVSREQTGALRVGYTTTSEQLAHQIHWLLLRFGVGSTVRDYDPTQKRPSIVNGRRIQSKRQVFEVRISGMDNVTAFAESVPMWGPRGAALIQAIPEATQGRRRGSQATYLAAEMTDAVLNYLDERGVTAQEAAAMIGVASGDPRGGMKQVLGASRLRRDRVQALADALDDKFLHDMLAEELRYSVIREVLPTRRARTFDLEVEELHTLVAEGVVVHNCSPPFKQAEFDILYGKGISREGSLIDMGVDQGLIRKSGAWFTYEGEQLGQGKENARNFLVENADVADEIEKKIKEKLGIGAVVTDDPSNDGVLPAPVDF

INS1 = test: beta cell apoptosis inhibitors, cytokine rescue, dose response, luminescence, retest (AID 449756); format: functional, cell-based; conditions: Rattus norvegicus;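 note: cell death triggered by IL-1 beta plus TNF-alpha plus IFN-gamma mixture; protective hits raise ATP signal compared with cytokine alone wells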
[8] = inhibitors of HIV Env-driven cell fusion, dose response, cherry-pick (AID 652057); format: functional, cell-based
[9] = CEM21 lymphoblast cell cytotoxicity, dose response, cytotoxicity control for viral fusion inhibitor project, CellTiter-Glo luminescence, cherry-picked (AID 652042); format: functional, cell-based;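 note: potency for signal decrease meaning cytotoxicity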
[10] = ZM109 Env clade C HIV-1 fusion inhibitors, dose response, HeLa effector, CEM target cells, luciferase, cherry-pick (AID 652058); format: functional, cell-based
[11] = off-target signal loss in HeLa-CEM21 co-culture – HeLa F-luc CTL cells, cherry-picked, counter-screen for HIV-1 Env fusion inhibitor project, dose response (AID 652040); format: functional, cell-based;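 note: potency for signal decrease marking cytotoxic or nonspecific inhibition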
[12] = inhibitors of clade B AD8 Env fusion, dose response, cell-based, cherry-pick (AID 652062); format: functional;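 note: luciferase signal from cell-cell fusion driven by HIV-1 clade B AD8 Env; potency is for inhibitors of fusion seen as a drop in luminescence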
[13] = HEp-2 cell cytotoxicity, dose response, cytotoxicity control for RSV inhibitor project, HTS (AID 2410); format: functional; conditions: human respiratory syncytial virus
Troponin, cardiac muscle = Troponin, cardiac muscle (Homo sapiens, UniProt P19429+P45379+P63316); test: Fluorescence-based biochemical high throughput dose response assay for activators of the calcium sensitivity of cardiac Regulated Thin Filaments (RTF). [Related pubchem assays (depositor defined):AID493008, AID493018, AID504382, AID504383]; format: protein-complex assay
Hexokinase HKDC1 = molecular target: T3, Hexokinase HKDC1 (Homo sapiens, UniProt Q2TB90); test: HKDC1 hexokinase activators, dose response, biochemical, W721R variant (AID 504730); format: functional
T3 sequence (Q2TB90 whole entry): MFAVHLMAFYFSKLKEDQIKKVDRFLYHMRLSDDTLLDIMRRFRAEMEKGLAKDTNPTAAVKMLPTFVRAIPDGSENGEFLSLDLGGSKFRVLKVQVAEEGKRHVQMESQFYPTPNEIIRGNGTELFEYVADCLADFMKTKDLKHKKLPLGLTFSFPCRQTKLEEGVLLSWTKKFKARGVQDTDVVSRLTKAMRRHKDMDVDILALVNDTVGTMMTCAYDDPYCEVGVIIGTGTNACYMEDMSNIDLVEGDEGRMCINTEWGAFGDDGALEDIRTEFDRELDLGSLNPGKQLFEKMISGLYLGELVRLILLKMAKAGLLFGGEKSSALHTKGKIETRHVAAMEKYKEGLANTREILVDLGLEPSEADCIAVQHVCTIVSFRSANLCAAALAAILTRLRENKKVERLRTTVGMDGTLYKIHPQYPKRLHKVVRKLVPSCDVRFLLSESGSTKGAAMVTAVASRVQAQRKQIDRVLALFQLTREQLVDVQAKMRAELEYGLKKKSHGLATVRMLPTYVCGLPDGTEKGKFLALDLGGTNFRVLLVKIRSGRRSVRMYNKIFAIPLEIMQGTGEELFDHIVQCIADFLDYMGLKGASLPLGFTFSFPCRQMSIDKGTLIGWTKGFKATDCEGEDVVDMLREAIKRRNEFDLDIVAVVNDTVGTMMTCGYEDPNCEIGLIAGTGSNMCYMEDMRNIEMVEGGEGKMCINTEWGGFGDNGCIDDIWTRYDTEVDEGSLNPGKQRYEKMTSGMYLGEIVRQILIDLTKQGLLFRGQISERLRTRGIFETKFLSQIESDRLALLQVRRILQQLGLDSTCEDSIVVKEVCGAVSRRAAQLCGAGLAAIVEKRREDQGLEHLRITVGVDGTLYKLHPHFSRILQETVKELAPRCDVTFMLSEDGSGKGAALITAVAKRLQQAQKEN

Hexokinase-1 = molecular target: T4, Hexokinase-1 (Homo sapiens, UniProt P19367); test: hexokinase 1 activators, dose response, selectivity assay for HKDC1 activator project, biochemical (AID 504762); format: functional
T4 sequence (P19367 whole entry): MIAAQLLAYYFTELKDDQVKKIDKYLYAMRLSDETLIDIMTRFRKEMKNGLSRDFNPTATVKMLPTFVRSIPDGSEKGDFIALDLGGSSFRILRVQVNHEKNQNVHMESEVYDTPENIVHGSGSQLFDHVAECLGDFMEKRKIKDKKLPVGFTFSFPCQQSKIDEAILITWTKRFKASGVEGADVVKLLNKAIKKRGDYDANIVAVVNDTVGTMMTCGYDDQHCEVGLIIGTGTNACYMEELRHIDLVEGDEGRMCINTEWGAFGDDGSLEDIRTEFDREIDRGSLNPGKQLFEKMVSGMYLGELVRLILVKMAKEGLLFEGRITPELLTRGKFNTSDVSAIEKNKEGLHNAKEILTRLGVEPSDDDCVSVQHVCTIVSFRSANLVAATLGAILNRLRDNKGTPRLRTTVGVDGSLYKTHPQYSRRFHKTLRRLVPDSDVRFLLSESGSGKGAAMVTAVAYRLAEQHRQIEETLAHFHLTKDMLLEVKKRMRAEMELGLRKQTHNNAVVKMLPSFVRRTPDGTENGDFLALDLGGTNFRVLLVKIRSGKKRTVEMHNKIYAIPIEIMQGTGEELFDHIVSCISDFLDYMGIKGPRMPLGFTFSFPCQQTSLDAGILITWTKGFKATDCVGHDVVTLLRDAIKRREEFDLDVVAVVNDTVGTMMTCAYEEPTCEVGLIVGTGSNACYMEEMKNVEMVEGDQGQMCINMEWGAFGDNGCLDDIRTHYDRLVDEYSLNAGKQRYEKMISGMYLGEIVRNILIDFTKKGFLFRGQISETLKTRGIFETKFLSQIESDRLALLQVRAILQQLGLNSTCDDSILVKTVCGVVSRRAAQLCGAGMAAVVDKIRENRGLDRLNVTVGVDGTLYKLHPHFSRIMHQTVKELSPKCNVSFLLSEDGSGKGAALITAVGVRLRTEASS

C(=N\Nc1nncc2ccccc12)/c1ccccn1
EC50 (BJ [1]): 8.71 µM (inconclusive) | EC50 (BJ [2]): 10.8 µM (inconclusive) | EC50 (BJ [3]): 4.42 µM (active) | EC50 [4]: 5.08 µM (inconclusive) | IC50 (Nonstructural protein 1): 4.45 µM (active) | CC50 [5]: 6.58 µM (active) | AC50 [6]: 3.19 µM (active) | EC50 (BJ [7]): 3.77 µM (active) | EC50 (Protein RecA): 1.29 µM (active) | AC50 (INS1): 1.58 µM (active) | AC50 [8]: 0.478 µM (active) | AC50 [9]: 4.9 µM (active) | AC50 [10]: < 0.26 µM (active) | AC50 [11]: 4.38 µM (active) | AC50 [12]: 4.65 µM (active)

CCn1c(=O)c(C(=O)CN2CCCc3ccccc32)c(N)n(Cc2ccccc2)c1=O
CC50 [13]: 12.4 µM (active) | EC50 (Troponin, cardiac muscle): > 23.8 µM (inactive)

Clc1cccc(NC2=NN=C(c3ccc4c(c3)OCCO4)CS2)c1
EC50 (Hexokinase HKDC1): 23.2 µM (inactive) | EC50 (Hexokinase-1): 41.3 µM (inactive) | AC50 (INS1): 2.25 µM (active)

COc1cc(OC)c(C(=O)OC(C)C(=O)Nc2cccc(C(F)(F)F)c2)cc1OC (stereo unspecified)
EC50 (Troponin, cardiac muscle): > 71.5 µM (inactive)
